The source of these data is US9907797B2, “Combination therapies for overcoming resistance to mitotic agents during chemotherapy” (EMORY UNIVERSITY, priority 2014, dated 2018).

SMILES strings stand for the structures.

Series [1] deals with T1, CHFR (Homo sapiens, UniProt Q96EP1).
T1 sequence (Q96EP1 1-664): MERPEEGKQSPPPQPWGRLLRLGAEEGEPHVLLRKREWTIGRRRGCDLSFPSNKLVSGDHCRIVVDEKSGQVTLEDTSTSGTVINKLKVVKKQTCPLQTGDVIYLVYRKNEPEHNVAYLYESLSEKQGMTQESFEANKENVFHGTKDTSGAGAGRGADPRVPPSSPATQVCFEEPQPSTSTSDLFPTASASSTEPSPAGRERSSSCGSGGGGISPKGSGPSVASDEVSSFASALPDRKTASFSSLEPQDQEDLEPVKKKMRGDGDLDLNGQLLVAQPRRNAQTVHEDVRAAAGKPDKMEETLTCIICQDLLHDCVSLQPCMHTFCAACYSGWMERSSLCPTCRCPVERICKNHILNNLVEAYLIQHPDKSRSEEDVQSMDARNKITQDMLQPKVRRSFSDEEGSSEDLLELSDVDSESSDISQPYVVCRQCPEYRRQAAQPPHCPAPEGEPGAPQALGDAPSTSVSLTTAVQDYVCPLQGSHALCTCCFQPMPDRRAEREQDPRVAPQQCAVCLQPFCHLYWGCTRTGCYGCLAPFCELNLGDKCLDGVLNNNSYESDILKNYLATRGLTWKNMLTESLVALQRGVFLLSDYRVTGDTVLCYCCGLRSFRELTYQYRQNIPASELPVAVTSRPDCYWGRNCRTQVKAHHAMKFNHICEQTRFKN
As to the kind of experiment: CHFR immunohistochemistry in A549 tumor xenografts. Type of series: in vivo, nude mice. Particulars: single ip injection 10 mg/kg. Also on record: endogenous in cells; host or cells: A549 cells grown as flank xenografts in nude mice. As to the method: 4 hrs after i.p. injection a significant reduction in nuclear CHFR staining was observed, indicating an in vivo reproducible pharmacodynamic effect of ‘A3’.
‘A3’ is capable of disrupting the interaction between CHFR and PARP1 in vitro, leading to a depletion of CHFR expression and to sensitization towards the cytotoxic effects of taxanes. The impact of ‘A3’ administration on lung tumor xenografts was evaluated. A549 NSCLC cells were injected into the flank of nude mice and allowed to establish for approximately 14 days. Once tumors had reached a volume about 100 mm3, mice received a single ip injection of ‘A3’ at 10 mg/kg. Mice were then euthanized at 1, 2, 4 and 24 hours after and CHFR in the xenografts was analyzed by immunohistochemistry (FIG. 5A).

Series [2] concerns CHFR expressing cell lines. As to the kind of experiment: Colony formation assays on a panel of cell lines of different cancer types. The series is classed as cell-based. As to the method: Various cell lines of different tissues of origin and with different CHFR expression status were exposed to 1 hour of docetaxel and 72 hours of ‘A3’. Effects were defined as 1−colony count (treatment)/colony count (control). The nature of the interaction between the two compounds was analyzed by the Bliss additivity method. […] For subsequent colony formation assays, cell lines were characterized into CHFR expressing vs. CHFR deficient cell lines by Western-Blot.
Finally, colony formation assays were performed on a panel of cell lines of different cancer types such as lung-, breast-, and colon cancer.

In series [3] the target is T1, CHFR. As to the kind of experiment: CHFR protein levels in A549 nuclear extracts. Also on record: endogenous in cells; host or cells: A549. Type of series: cell-based. How it is done: HEK293 cells were stably transfected with the pDEST27-AR-CHFR construct. Deletion of the RING domain in this construct leads to both stable CHFR and PARP1 expression that is unaltered by treatment with increasing concentrations of ‘A3’ for 16 hours. Nonetheless, the interaction between glutathione-affinity purified CHFR-ΔR and PARP1 was decreased by ‘A3’ in a dose dependent fashion. A549 cells were incubated for 16.5 hrs with MG132 and indicated A3 concentration for 16 hrs. At 10 uM A3 concentration CHFR staining is diminished in the nucleus Cells are stained with CHFR.
In an attempt to generate possible lead compounds for the pharmacologic inhibition of the CHFR-PARP1 interaction, a high throughput computational screen of 5,256,508 chemical structures in the MCULE database of purchasable compounds using the AutoDockVina algorithm against the published crystal structure of the CHFR-PBZ domain was performed. The 10 most promising ‘hits’ based on Autodock Vina docking scores (<−9.7) were selected for further characterization. Commercially available compounds were tested for their impact on nuclear CHFR levels (FIG. 3A). […] The impact of the above referenced compounds on the PARP1/CHFR interaction were evaluated. HEK293 cells were transfected with GST tagged PARP1 and the interaction with CHFR determined in pull down assays for those 4 compounds. […]

Series [4] can be described thus: Pharmacokinetics, plasma concentrations by LC/MS/MS. To be noted: CD1 mice. The series is classed as in vivo. As to the method: The in vivo properties of ‘A3’ were evaluated. The pharmacokinetics of ‘A3’ after a single oral (25 mg/kg) and intravenous (10 mg/kg) dose of in CD1 mice were determined. Plasma was obtained at pre-specified time points (15 min to 24 hours) and ‘A3’ concentrations were determined by LC/MS/MS. […] Oral bioavailability of ‘A3’ was insignificant. The time-point of maximal CHFR suppression at 4 hrs follow the peak in A3 plasma levels with some delay.

Another series addresses T2, PARP1-CHFR interaction (Homo sapiens, UniProt Q96EP1).
T2 construct: expressed in transfected cells; CHFR endogenous
T2 sequence (Q96EP1 1-664): T1 sequence (Q96EP1 1-664)
As to the kind of experiment: Glutathione affinity pull-down of GST tagged PARP1 with CHFR in HEK293 cells. Type of series: cell-based. Particulars: 10 uM, 16 hours. As to the method:
In an attempt to generate possible lead compounds for the pharmacologic inhibition of the CHFR-PARP1 interaction, a high throughput computational screen of 5,256,508 chemical structures in the MCULE database of purchasable compounds using the AutoDockVina algorithm against the published crystal structure of the CHFR-PBZ domain was performed. The 10 most promising ‘hits’ based on Autodock Vina docking scores (<−9.7) were selected for further characterization. Commercially available compounds were tested for their impact on nuclear CHFR levels (FIG. 3A). Several compounds, including ‘A2’, ‘A3’, ‘A4’ and ‘A6’ decreased CHFR levels assayed by western blotting of whole cell extracts. The impact of the above referenced compounds on the PARP1/CHFR interaction were evaluated. HEK293 cells were transfected with GST tagged PARP1 and the interaction with CHFR determined in pull down assays for those 4 compounds. […] In contrast to treatment with ABT-888, ‘A3’ completely disrupted the interaction between GST-tagged PARP-1 and CHFR (FIG. 3B). […] Since it is possible that the co-immunoprecipitation between PARP-1 and CHFR after ‘A3’ treatment was negative due to the fact that CHFR was degraded, the experiment was repeated after transfection with the Ring-domain deleted ΔR-CHFR construct, which maintained both stable CHFR and PARP1 levels even after treatment with ‘A3’. […]

On to `Cc1ccc(N2C(=O)NC(=O)C(=Cc3cn(Cc4ccccc4)c4ccccc34)C2=O)cc1C` [A3, 5-((1-benzyl-1H-indol-3-yl)methylene)-1-(3,4-dimethylphenyl)pyrimidine-2,4,6(1H,3H,5H)-trione], for which the “nuclear CHFR expression in xenografts” value is given as “restored to baseline levels” at CHFR [1] (24 hr time point) and “Significant suppression of nuclear CHFR expression” at CHFR [1] (after 4 hours). Moreover, the “synergy between A3 and docetaxel, colony formation (Bliss additivity)” value was “strong synergy” in series [2] (CHFR expressing cell line H460); “synergy between ‘A3’ and docetaxel was observed for all other CHFR expressing cell lines” in series [2] (CHFR expressing cell lines other than EKVX, 1 hour docetaxel, 72 hours A3). Further, the CHFR protein levels entry is given as “complete disappearance of CHFR” at CHFR [3] (10 uM, 16 hrs, A549) and “initial increase in CHFR protein levels” on CHFR [3] (low concentrations of A3). In addition, the distribution entry in series [4] (following intravenous dosing 10 mg/kg) was “rapidly and widely distributed”. Moreover, the “relative bioavailability from dose normalized AUC values” in series [4] (single oral (25 mg/kg) and intravenous (10 mg/kg) dose) stood at 19.5%. In addition, in series [4] (single oral dose 25 mg/kg), the Oral bioavailability entry is recorded as “insignificant”. The “interaction between PARP1 and CHFR” value on PARP1-CHFR interaction is “completely inhibited an interaction between PARP1 and CHFR”.
